Measurements published in EP2236157A1 (PharmaNeuroBoost N.V., priority 2009, dated 2010).

Assays:
other 5HT receptors = assay: receptor binding affinity (pKi)
[1] = test system: patients with major depression; assay: semi-naturalistic open label study of combo pipamperone-citalopram in major depression (Example 2); assay type: in vivo
Excerpt: This semi-naturalistic open label study investigated the efficacy and tolerability of the combo pipamperone - citalopram in the treatment of patients with major depression.
• Design: Semi-naturalistic i.e. inclusion of every 'natural' patient in an outpatient practice but without concomitant use of mood enhancing drugs, open label • Control: No • Phase: Phase IIa - preliminary Proof of Concept • Location: Belgium - Research Centre ANIMA, Alken • End Points : Assessment scale scores, Hamilton Depression Rating Scale 17 items, Reduction, Response, Remission • Medication: Exclusion of mood stabilisers, antipsychotics (typical and atypical) and other antidepressants
Patients have a major depressive disorder according to DSM-IV criteria, with or without a chronic course and a treatment refractory state towards another SSRI than citalopram. […]
Adverse events are assessed on: body as a whole, central and peripheral nervous system, gastrointestinal, musculoskeletal, psychiatric, respiratory, skin and appendages, vascular and urinary, taking into account discontinued treatment due to adverse events. Laboratory parameters, ECG, bodyweight and vital signs are not measured since this is a naturalistic study.

D4 receptor = molecular target: T1, D4 receptor (Homo sapiens, UniProt P21917); assay: receptor binding affinity (pKi); details: read-out: pKi value towards the D4 receptor (converted)
T1 sequence (P21917 1-419): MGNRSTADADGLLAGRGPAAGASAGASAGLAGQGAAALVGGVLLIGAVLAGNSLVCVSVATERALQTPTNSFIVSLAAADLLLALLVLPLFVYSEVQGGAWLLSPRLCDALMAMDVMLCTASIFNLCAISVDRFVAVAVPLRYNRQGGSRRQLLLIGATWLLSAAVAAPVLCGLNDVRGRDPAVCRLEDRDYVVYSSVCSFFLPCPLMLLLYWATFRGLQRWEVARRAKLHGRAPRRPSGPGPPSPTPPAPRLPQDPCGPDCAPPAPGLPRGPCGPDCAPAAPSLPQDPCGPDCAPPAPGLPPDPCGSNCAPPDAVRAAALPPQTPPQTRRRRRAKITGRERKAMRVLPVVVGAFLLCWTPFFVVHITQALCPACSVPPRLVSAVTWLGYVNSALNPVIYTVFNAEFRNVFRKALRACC

patients with OCD = assay: semi-naturalistic open label study of combo pipamperone-citalopram in obsessive-compulsive disorder (Example 4); assay type: in vivo; details: pipamperone 16-19 mg/day + citalopram 30-60 mg/day
Experimental: This semi-naturalistic open label study investigates the efficacy and tolerability of the combo pipamperone - citalopram in the treatment of patients with OCD.
Characteristics: patients have an obsessive-compulsive disorder according to DSM-IV criteria, with or without a chronic course and a treatment refractory state towards another SSRI than citalopram.
Treatment with the combo pipamperone-citalopram (n = 7). Treatment with fluvoxamine (controlled release) mean 271 mg/day (n = 253) is according to Hollander et al. (2003).
The intention-to-treat/last-observation-carried-forward analysis is evaluated relating to therapeutic efficacy according Y-BOCS total score, obsession and compulsion scores.

other dopamine receptors = assay: receptor binding affinity (pKi)
[2] = test system: adrenergic receptors α-1A, α-2A, α-2B, α-2C, β-1, β-2, and the histamine receptor H1; assay: receptor binding affinity (Table 1); details: β-1, β-2 and histamine receptor H1

`NC(=O)C1(N2CCCCC2)CCN(CCCC(=O)c2ccc(F)cc2)CC1` [pipamperone, 1'-[3-(p-Fluorobenzoyl)propyl]-[1,4'-bipiperidine]-4'-carboxamide] was tested, and the “pKi value towards other 5HT receptors” value (other 5HT receptors) was “less than 8”, the sedative effects ([1]; major depression study, pipamperone 16-19 mg/day) was “lacking” and the “boosting effect on a SSRI (citalopram)” value ([1]; major depression, pipamperone 16-19 mg/day + citalopram 10-20 mg/day, PO, 8 weeks) was “apparent”. The Ki (D4 receptor) was no more than 10 nM, the sedative effects (patients with OCD) was “lacking” and the “pKi value towards other dopamine receptors” value (other dopamine receptors) was “less than 8”. For the same molecule, the “affinity for other receptors” value [2] was “low or absence of affinity”.
